Data: US20030013685A1, “Process for increasing the egg production and strengthening the eggshells of poultry” (priority 2000, published 2003)
Like-named read-outs stand apart in the source and are kept apart here.

What was measured:
laying hens = details: cited from earlier work
hens of ISA Brown strain [1] = assay: Thickness of the mineralized part of the shell from electron microscope images; format: in vivo, hen; details: for Thickness of the mineralized part of the shell at 23 weeks: 23 weeks old; for Thickness of the mineralized part of the shell at 54 weeks: 54 weeks old
Description: (§1) A total number of 216 hens of ISA Brown strain between 15 and 17 weeks old was divided into 3 groups for the purpose of evaluating the effects on the production of eggs of a single subcutaneous administration of tiludronic acid, in the form of its sodium salt (disodium tiludronate).
(§2) Three doses were compared: 0, 1 and 10 mg/kg (corresponding amount of tiludronic acid/kg). The tiludronic acid was administered in the form of injectable aqueous solutions such that the volume injected per bird was 1 ml per kilo of live weight. The tiludronic acid solutions were thus concentrated to 0.1% and 1% for the doses of 1 and 10 mg/kg, respectively. The control group received a placebo corresponding to water for an injectable preparation. The injections were performed subcutaneously in the region above the superficial pectoral muscle.
(§3) Moreover, an analysis of the mechanical strength of the shell and the thickness of the mineralized part of the shell was carried out using a sample of 12 hens at the following two dates of maturity: at 23 weeks old (i.e. at the start of laying) and at 54 weeks old. The strength of the shell was measured quantitatively by a technique of quasi-static compression of the eggshell. The thickness of the shell was measured from images obtained with an electron microscope.
(§4) The “age of onset of laying”, “total number of eggs laid per hen”, “number of eggs laid per hen and per week over the entire laying period”, “mechanical strength of the shell”, “thickness of the shell” and “medullary bone volume” criteria were compared by means of a single-factor variance analysis (dose factor).

hens of ISA Brown strain [2] = assay: Laying parameters of hens after a single subcutaneous administration of tiludronic acid (disodium tiludronate) before onset of laying; format: in vivo, hen; details: for Age of onset of laying: hens monitored up to 55 weeks old; for Average number of eggs laid per hen and per week / Average total number of eggs laid per hen: from onset of laying up to 55 weeks old
Description: as §1, §2
The hens were housed in individual cages in the same building at controlled temperature and hygrometry. Each animal was identified by a number carried on a ring attached to a wing. They received the same standard feed for laying hens, freely throughout the duration of the study. Drinking water was also distributed freely.
The average age of onset of laying for the hens in this strain is 20 weeks, with extremes of between 18 and 23 weeks. Consequently, for the hens of this study, the average delay between the treatment and the age of onset of laying had to be from 3 to 5 weeks. The duration of the study was 40 weeks. At the end of the study, the hens were 55 weeks old.
The other half of the total number of hens was monitored in order to collect the following laying parameters: age on laying the first egg and total number of eggs laid up to 55 weeks old. For each group, the average number of eggs laid per hen and per week was calculated over the entire laying period and week by week, in order to establish the laying curves.
as §4

hens of ISA Brown strain [3] = assay: Histomorphometric examination of tarsometatarsal bone (medullary bone volume); format: in vivo, hen; details: for Multiplication factor of medullary bone volume: onset of laying to 55 weeks old
Description: as §1, §2
One half of the total number of hens was sacrificed on laying the first egg, in order to carry out a histomorphometric examination. This examination was performed on one of the two tarsometatarsal bones.
At 55 weeks old, all the animals were sacrificed and a histomorphometric examination of one of the tarsometatarsal bones was performed under the same conditions as on the bones of the hens sacrificed on laying of the first egg.
as §4

hens of ISA Brown strain [4] = assay: Mechanical strength of the eggshell by quasi-static compression; format: in vivo, hen; details: for Mechanical strength of the shell at 23 weeks: 23 weeks old; for Mechanical strength of the shell at 54 weeks: 54 weeks old
Description: as §1, §2, §3, §4

[5] = treated groups, laying curves FIG. 1 and 2

In the case of `NCCCC(O)(P(=O)(O)O)P(=O)(O)O` [alendronate, [4-amino-1-hydroxybutylidene] bisphosphonate], the Effect on laying (laying hens; 1 mg/kg subcutaneously every 2 days for 2 weeks, about 18 weeks after onset of laying, within a few days) is given as “complete stoppage of laying”, the Effect on laying (laying hens; 0.01, 0.1 or 1 mg/kg during laying) is given as “reduction, or even the stopping, of laying” and the “Effect on the quality of the shell” value (laying hens; administration during laying, more pronounced the higher the dose) is given as “adverse change in the quality of the shell”.
For `O=P(O)(O)C(Sc1ccc(Cl)cc1)P(=O)(O)O` [tiludronic acid, 4-chlorophenylthiomethylenebisphosphonic acid], the “Thickness of the mineralized part of the shell at 23 weeks” value (hens of ISA Brown strain [1]; 1 mg/kg) was 0.256 ± 0.025 mm, the “Thickness of the mineralized part of the shell at 54 weeks” value (hens of ISA Brown strain [1]; 1 mg/kg) was 0.267 ± 0.026 mm and the “Thickness of the mineralized part of the shell at 23 weeks” value (hens of ISA Brown strain [1]; 10 mg/kg) was 0.272 ± 0.013 mm. The “Thickness of the mineralized part of the shell at 54 weeks” value (hens of ISA Brown strain [1]; 10 mg/kg) was 0.273 ± 0.021 mm, the “Total number of eggs laid per hen versus control group (2-by-2 analysis)” value (hens of ISA Brown strain [2]; 1 mg/kg) was “significantly higher” and the “Age of onset of laying” value (hens of ISA Brown strain [2]; 1 mg/kg single subcutaneous dose) was 148.3 ± 7.8 days. The “Average number of eggs laid per hen and per week” value (hens of ISA Brown strain [2]; 1 mg/kg) was 6.53 ± 0.27, the “Average total number of eggs laid per hen” value (hens of ISA Brown strain [2]; 1 mg/kg) was 221.6 ± 11.2 and the “Start of laying on average after the hens of the other 2 groups” value (hens of ISA Brown strain [2]; 1 mg/kg, no significant difference (p=0.11)) was 3 days. For the same compound, the “Age of onset of laying” value (hens of ISA Brown strain [2]; 10 mg/kg single subcutaneous dose) was 145.1 ± 8.8 days, the “Average number of eggs laid per hen and per week” value (hens of ISA Brown strain [2]; 10 mg/kg) was 6.39 ± 0.34 and the “Average total number of eggs laid per hen” value (hens of ISA Brown strain [2]; 10 mg/kg) was 219.8 ± 12.6. The “Laying peak compared with control group” value (hens of ISA Brown strain [2]; [5]) was “higher”, the “Slope of the laying curve compared with controls” value (hens of ISA Brown strain [2]; [5]) was “substantially smaller” and the “Change in the age of onset of laying” value (hens of ISA Brown strain [2]; treatment with tiludronic acid, 1 and 10 mg/kg) was “did not result in any change”. The “Volume of medullary bone of the tarsometatarsal bone at 55 weeks old” value (hens of ISA Brown strain [3]; 1 mg/kg) was 2.75 ± 2.72%, the “Volume of medullary bone of the tarsometatarsal bone at the onset of laying” value (hens of ISA Brown strain [3]; 1 mg/kg) was 0.31 ± 0.53% and the “Multiplication factor of medullary bone volume” value (hens of ISA Brown strain [3]; 1 mg/kg) was 9. The “Volume of medullary bone of the tarsometatarsal bone at 55 weeks old” value (hens of ISA Brown strain [3]; 10 mg/kg) was 3.53 ± 3.04%, the “Volume of medullary bone of the tarsometatarsal bone at the onset of laying” value (hens of ISA Brown strain [3]; 10 mg/kg) was 0.26 ± 0.33% and the “Multiplication factor of medullary bone volume” value (hens of ISA Brown strain [3]; 10 mg/kg) was 13. For the same compound, the “Mechanical strength of the shell at 23 weeks” value (hens of ISA Brown strain [4]; 1 mg/kg) was 39.3 ± 5.2 N, the “Mechanical strength of the shell at 54 weeks” value (hens of ISA Brown strain [4]; 1 mg/kg) was 28.3 ± 4.9 N and the “Mechanical strength of the shell at 23 weeks” value (hens of ISA Brown strain [4]; 10 mg/kg) was 41.5 ± 6.3 N. For the same compound, the “Mechanical strength of the shell at 54 weeks” value (hens of ISA Brown strain [4]; 10 mg/kg) was 30.3 ± 6.1 N and the “Loss of mechanical strength of the eggshells between the two maturity dates of measurement” value (hens of ISA Brown strain [4]; two treated groups (1 and 10 mg/kg), between 23 and 54 weeks) was “about −28%”.
